According to PubChem BioAssay (NCI):
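Growth conditions: 96-well plates. Treatment: test compound, 48 hours, 5 concentrations. Analysis: linear interpolation between bracketing concentrations; unreached endpoints set to highest concentration. Here, GI50 denotes the concentration required for 50% inhibition of growth. TGI denotes the concentration required for complete inhibition of growth.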

Columns and labels:
Assay in all cases: inhibition of tumour cell growth, NCI panel, 48 h
[1] = system: RXF 393 renal
[2] = system: CAKI-1 renal
[3] = system: A549 NSCLC
[4] = system: LOX IMVI melanoma
[5] = system: SF-539 CNS
[6] = system: SK-MEL-5 melanoma
[7] = system: NCI-H522 lung
[8] = system: HOP-92 NSCLC
[9] = system: PC-3 prostate
[10] = system: UO-31 renal

Compound	GI50 [1]	TGI [1]	GI50 [2]	TGI [2]	GI50 [3]	TGI [3]	GI50 [4]	TGI [4]	GI50 [5]	TGI [5]	GI50 [6]	TGI [6]	GI50 [7]	TGI [7]	GI50 [8]	TGI [8]	GI50 [9]	TGI [9]	GI50 [10]	TGI [10]
COc1cc2c(=O)n(CCN)c3c4cc5c(cc4ccc3c2cc1OC)OCO5	1.02 µM	2.56 µM	0.382 µM	5.94 µM	0.626 µM	2.36 µM	0.362 µM	1.78 µM	0.893 µM	2.25 µM	0.834 µM	2.15 µM	0.167 µM	1.83 µM	3.31 µM	18 µM	0.591 µM	2.27 µM	0.605 µM	2.1 µM
CC(CCC(=O)O)C(=O)O (stereo unspecified)		> 100 µM		> 100 µM		> 100 µM		> 100 µM		> 100 µM		> 100 µM		> 100 µM		> 100 µM		> 100 µM		> 100 µM
Nc1ccc(C(=O)CC(N)C(=O)O)cc1O (stereo unspecified)		> 100 µM		> 100 µM		> 100 µM		> 100 µM		> 100 µM		> 100 µM		> 100 µM		> 100 µM		> 100 µM		> 100 µM
COc1ccc(Cn2cc3c(c2)-c2oncc2CC3)cc1	5.25 µM	28.1 µM	6.24 µM	> 100 µM	7.26 µM	> 74.4 µM	6.99 µM	> 100 µM	2.94 µM	14.9 µM	3.21 µM	12.6 µM	3.24 µM	16.7 µM	5.14 µM	37.3 µM	5.26 µM	61.1 µM	5.16 µM	> 90.7 µM
COc1cc(C(=O)Nc2cc3c(cc2Oc2cc(C)cc(C)c2)C(=O)N(C)[C@@H](CC(=O)N(C)O)C(=O)N3)c(Br)c(OC)c1OC	< 0.00333 µM	0.00609 µM	0.496 µM	2.58 µM	< 0.00333 µM	0.00742 µM	< 0.00333 µM	< 0.00333 µM	< 0.00333 µM	< 0.00333 µM	< 0.00333 µM	0.0116 µM	< 0.00333 µM	< 0.00333 µM	< 0.00333 µM	< 0.00333 µM	< 0.00333 µM	0.00358 µM	0.0255 µM	0.413 µM
O=C(O)C1CCCCC1C(=O)O.[NH-]C1CCC1.[NH2-].[Pt+2] (stereo unspecified)	52.8 µM	> 100 µM	2.61 µM	17.4 µM	30.7 µM	> 100 µM	6.35 µM	23.3 µM	17 µM	33.2 µM	3.36 µM	12.5 µM	7.21 µM	> 100 µM	19.4 µM	44 µM	> 100 µM	> 100 µM	19.4 µM	50.3 µM
CCN(CC)C(=S)Oc1cc2oc(=O)cc(C)c2cc1Cl		> 100 µM		> 100 µM		> 100 µM		> 100 µM		> 100 µM		> 100 µM		> 100 µM		> 100 µM		> 100 µM		> 100 µM
Nc1ccccc1C#C/C=C\C#Cc1ccccc1[N+](=O)[O-]	2.07 µM	9.06 µM	3.28 µM	23 µM	4.42 µM	21.3 µM	2.28 µM	15.7 µM	2.17 µM	10.4 µM	3.08 µM	18.6 µM	7.25 µM	39.8 µM	31.7 µM	> 100 µM	6.82 µM	> 100 µM	10.5 µM	28.4 µM
C=C1C(=O)O[C@H]2[C@H]1CC/C(COC(=O)c1cc3cc(Cl)ccc3[nH]1)=C\CC[C@@]1(C)O[C@@H]21	1.38 µM	2.72 µM	1.19 µM	2.42 µM	1.69 µM	3.31 µM	0.813 µM	2.08 µM	1.44 µM	2.92 µM	1.91 µM	3.54 µM	1.59 µM	3.92 µM	1.25 µM	2.76 µM	2.42 µM	6.58 µM	1.21 µM	2.56 µM
Cc1c(C(=O)NCCN2CCOCC2)cn2ncnc(Oc3ccc(NC(=O)Nc4ccc(Cl)c(C(F)(F)F)c4)cc3)c12	1.22 µM	2.73 µM	1.46 µM	2.92 µM			0.601 µM	1.94 µM	0.508 µM	2.14 µM	1.65 µM	3.01 µM	1.76 µM	4.23 µM	1.02 µM	2.8 µM	0.842 µM	2.33 µM	2.18 µM	3.83 µM
COc1ccc(-c2ccc(-c3ccc(C(=N)N)cn3)o2)cc1	7.01 µM	20 µM	6.79 µM	20.7 µM	5.1 µM	18.7 µM	2.58 µM	6.86 µM	4.74 µM	17.8 µM	3.43 µM	14.1 µM	6.8 µM	20.7 µM	1.31 µM	6.4 µM	4.18 µM	18 µM	2.68 µM	17.3 µM
Cn1c2c(c3ccc(Cl)c(Cl)c31)C(C#N)C1(CCNCC1)NC2=O (stereo unspecified)	1.52 µM	5.79 µM	0.384 µM	1.75 µM	2.42 µM	7.89 µM	1.54 µM	3.39 µM	2.03 µM	6.34 µM	1.5 µM	2.91 µM	1.55 µM	3.42 µM	0.484 µM	2.37 µM	1.55 µM	4.99 µM	1.23 µM	4.46 µM
CCOC(=O)/C=C/C1=C(c2cccs2)c2ccccc2CC1	19.5 µM	41.3 µM	43.1 µM	> 100 µM	33.8 µM	> 100 µM	15.9 µM	30 µM			16.8 µM	31.8 µM	24.3 µM	63.6 µM	37.4 µM	> 100 µM	37.1 µM	> 100 µM	33.5 µM	> 100 µM
COc1cc(/C=C2\C(=O)Nc3ccc(N(C)C)cc32)cc(OC)c1OC	0.24 µM	1.28 µM	5.78 µM	> 80.5 µM	3.86 µM	35.9 µM	3.2 µM	18.6 µM	2.44 µM	7.88 µM	2.75 µM	24.6 µM	1.47 µM	5.75 µM	3.17 µM	36.3 µM	1.73 µM	> 100 µM	3.17 µM	> 87.4 µM
